Molecules are shown by their SMILES.

For this assay, the target named is T1, full-length ATR (Homo sapiens, UniProt Q13535).
T1 construct: in the presence of 5 nM full-length ATR
T1 sequence (Q13535 whole entry): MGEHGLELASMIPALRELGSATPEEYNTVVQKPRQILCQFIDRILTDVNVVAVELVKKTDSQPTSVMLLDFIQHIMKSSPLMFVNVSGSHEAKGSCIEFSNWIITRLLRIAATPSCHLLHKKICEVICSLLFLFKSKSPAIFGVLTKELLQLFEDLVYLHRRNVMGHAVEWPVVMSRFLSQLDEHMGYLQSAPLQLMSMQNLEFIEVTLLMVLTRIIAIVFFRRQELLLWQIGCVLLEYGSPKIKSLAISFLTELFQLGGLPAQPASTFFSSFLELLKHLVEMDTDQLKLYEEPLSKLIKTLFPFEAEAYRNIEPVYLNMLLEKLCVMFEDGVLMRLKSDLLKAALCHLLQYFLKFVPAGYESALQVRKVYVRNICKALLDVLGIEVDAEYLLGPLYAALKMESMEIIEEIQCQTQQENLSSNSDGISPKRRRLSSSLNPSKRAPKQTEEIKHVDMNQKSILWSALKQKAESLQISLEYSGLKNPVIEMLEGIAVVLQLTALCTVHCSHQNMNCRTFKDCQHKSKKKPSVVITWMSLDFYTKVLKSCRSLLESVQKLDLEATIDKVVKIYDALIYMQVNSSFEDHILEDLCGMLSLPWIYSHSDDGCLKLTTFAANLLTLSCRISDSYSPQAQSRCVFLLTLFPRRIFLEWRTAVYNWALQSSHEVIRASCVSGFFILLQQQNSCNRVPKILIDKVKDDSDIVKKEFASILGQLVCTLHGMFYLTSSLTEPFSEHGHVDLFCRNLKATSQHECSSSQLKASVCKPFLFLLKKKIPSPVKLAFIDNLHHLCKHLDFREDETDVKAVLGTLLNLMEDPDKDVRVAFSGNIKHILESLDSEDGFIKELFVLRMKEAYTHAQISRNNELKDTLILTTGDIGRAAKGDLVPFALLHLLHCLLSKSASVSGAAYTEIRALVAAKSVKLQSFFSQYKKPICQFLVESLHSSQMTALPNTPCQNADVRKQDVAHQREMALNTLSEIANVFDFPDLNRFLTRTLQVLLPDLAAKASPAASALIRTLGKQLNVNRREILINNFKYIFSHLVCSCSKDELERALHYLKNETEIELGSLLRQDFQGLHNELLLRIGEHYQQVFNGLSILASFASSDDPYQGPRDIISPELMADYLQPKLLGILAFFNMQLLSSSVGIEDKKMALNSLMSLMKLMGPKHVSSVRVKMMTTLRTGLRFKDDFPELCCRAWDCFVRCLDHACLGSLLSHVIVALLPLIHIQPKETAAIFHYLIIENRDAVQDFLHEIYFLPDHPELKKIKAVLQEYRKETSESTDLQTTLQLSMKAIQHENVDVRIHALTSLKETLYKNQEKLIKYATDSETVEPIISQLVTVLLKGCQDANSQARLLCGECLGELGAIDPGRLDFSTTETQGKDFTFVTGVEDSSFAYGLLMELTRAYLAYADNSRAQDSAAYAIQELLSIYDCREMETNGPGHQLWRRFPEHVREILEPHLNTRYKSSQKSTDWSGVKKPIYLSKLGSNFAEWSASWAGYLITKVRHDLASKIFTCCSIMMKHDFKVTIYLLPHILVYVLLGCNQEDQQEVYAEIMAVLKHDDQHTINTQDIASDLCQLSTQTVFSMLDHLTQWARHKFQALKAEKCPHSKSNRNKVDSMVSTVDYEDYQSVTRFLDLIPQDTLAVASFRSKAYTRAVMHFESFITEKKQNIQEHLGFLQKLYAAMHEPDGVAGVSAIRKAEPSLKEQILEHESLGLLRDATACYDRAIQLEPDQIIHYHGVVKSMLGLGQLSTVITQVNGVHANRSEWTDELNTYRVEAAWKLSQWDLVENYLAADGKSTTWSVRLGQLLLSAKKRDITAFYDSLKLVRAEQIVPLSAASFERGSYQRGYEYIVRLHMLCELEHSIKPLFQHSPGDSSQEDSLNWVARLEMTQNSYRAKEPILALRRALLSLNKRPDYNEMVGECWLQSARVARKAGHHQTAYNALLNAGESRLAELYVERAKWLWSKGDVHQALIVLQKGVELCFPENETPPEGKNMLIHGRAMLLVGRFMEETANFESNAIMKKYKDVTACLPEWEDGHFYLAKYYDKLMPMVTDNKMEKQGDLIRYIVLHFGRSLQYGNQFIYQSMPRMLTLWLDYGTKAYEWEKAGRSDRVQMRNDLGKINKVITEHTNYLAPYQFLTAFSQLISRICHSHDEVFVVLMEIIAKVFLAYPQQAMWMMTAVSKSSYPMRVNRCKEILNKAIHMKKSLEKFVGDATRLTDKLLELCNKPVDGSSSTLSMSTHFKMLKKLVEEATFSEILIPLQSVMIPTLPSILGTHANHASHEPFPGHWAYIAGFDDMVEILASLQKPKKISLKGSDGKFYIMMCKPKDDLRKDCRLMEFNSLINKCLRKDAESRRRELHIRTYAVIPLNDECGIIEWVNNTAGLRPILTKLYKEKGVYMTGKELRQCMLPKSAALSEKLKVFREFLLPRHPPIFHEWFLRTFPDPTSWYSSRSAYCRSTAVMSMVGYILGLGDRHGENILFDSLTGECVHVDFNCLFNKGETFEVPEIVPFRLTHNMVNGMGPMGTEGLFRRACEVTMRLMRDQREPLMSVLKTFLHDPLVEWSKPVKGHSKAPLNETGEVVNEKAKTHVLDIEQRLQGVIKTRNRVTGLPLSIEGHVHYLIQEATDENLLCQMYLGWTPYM
Nature of the assay: ATR Inhibition Assay (radioactive-phosphate incorporation). The settings on record: Ki(app); 5 nM full-length ATR, 10 μM ATP, 800 μM target peptide, 25° C. It is filed as biochemical. In a few lines: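 Buffer was 50 mM Tris/HCl pH 7.5, 10 mM MgCl2, 1 mM DTT, with 5 nM enzyme, 10 μM [γ-33P]ATP and 800 μM target peptide at 25 °C. Compound was pre-incubated 10 min before ATP start, and the reaction was stopped after 24 h. Phosphocellulose filter capture; Ki(app) came from non-linear regression of background-corrected initial rates.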
Regarding `Nc1ncc(N2CCN(S(=O)(=O)c3cccs3)CC2)nc1C(=O)Nc1ccccn1` [Compound I-116, 3-amino-N-(pyridin-2-yl)-6-(4-(thiophen-2-ylsulfonyl)piperazin-1-yl)pyrazine-2-carboxamide], the Ki was 100 to 1000 nM. In the case of `Cc1ccc2nc(-c3nc(N4CCC(C(F)(F)F)CC4)cnc3N)[nH]c2c1` [Compound I-31, 3-(6-methyl-1H-benzo[d]imidazol-2-yl)-5-(4-(trifluoromethyl)piperidin-1-yl)pyrazin-2-amine], the Ki was in the range of 1000 to 10000 nM. Next, `Nc1ncc(N2CCN(C(=O)N3CCCC3)CC2)nc1-c1nc2ccccc2[nH]1` [Compound I-267, (4-(5-amino-6-(1H-benzo[d]imidazol-2-yl)pyrazin-2-yl)piperazin-1-yl)(pyrrolidin-1-yl)methanone]: 1000 to 10000 nM; `Nc1ncc(C2=CCN(C(=O)c3ccccc3)CC2)nc1-c1nnc(-c2ccccc2)o1` [Compound I-103, (4-(5-amino-6-(5-phenyl-1,3,4-oxadiazol-2-yl)pyrazin-2-yl)-5,6-dihydropyridin-1(2H)-yl)(phenyl)methanone]: below 100 nM.

Turning to `CCS(=O)(=O)N1CC=C(c2cnc(N)c(-c3nnc(-c4ccc(CNC)cc4)o3)n2)CC1` [Compound I-339, 5-(1-Ethylsulfonyl-3,6-dihydro-2H-pyridin-4-yl)-3-[5-[4-(methylaminomethyl)phenyl]-1,3,4-oxadiazol-2-yl]pyrazin-2-amine], the Ki is 100 to 1000 nM. As for `CCS(=O)(=O)N1CCN(c2cnc(N)c(-c3nnc(-c4ccccc4C)o3)n2)CC1` [Compound I-287, 5-(4-ethylsulfonylpiperazin-1-yl)-3-[5-(o-tolyl)-1,3,4-oxadiazol-2-yl]pyrazin-2-amine], the Ki fell in the range of 100 to 1000 nM. For `CCS(=O)(=O)N1CC=C(c2cnc(N)c(C(=O)Nc3ccnc(C)c3)n2)CC1` [Compound I-166, 3-amino-6-(1-(ethylsulfonyl)-1,2,3,6-tetrahydropyridin-4-yl)-N-(2-methylpyridin-4-yl)pyrazine-2-carboxamide], the Ki lay within 100 to 1000 nM.

In the case of `CCS(=O)(=O)N1CC=C(c2cnc(N)c(C(=O)Nc3cc(C)ccn3)n2)CC1` [Compound I-167, 3-amino-6-(1-(ethylsulfonyl)-1,2,3,6-tetrahydropyridin-4-yl)-N-(4-methylpyridin-2-yl)pyrazine-2-carboxamide], the Ki was below 100 nM. Next, `CC(C)(C)OC(=O)N1CC=C(c2cnc(N)c(-c3noc(-c4ccccc4)n3)n2)CC1` [Compound I-163, Tert-butyl 4-(5-amino-6-(5-phenyl-1,2,4-oxadiazol-3-yl)pyrazin-2-yl)-5,6-dihydropyridine-1(2H)-carboxylate]: 100 to 1000 nM; `Nc1ncc(N2CCN(S(=O)(=O)C3CCCC3)CC2)nc1C(=O)Nc1ccccn1` [Compound I-248, 3-amino-6-(4-(cyclopentylsulfonyl)piperazin-1-yl)-N-(pyridin-2-yl)pyrazine-2-carboxamide]: 100 to 1000 nM. In the case of `Nc1ncc(N2CCN(C(=O)N3CCCC3)CC2)nc1C(=O)Nc1ccccn1` [Compound I-239, 3-amino-N-(pyridin-2-yl)-6-(4-(pyrrolidine-1-carbonyl)piperazin-1-yl)pyrazine-2-carboxamide], the Ki was in the range of 1000 to 10000 nM. The value for `CCN1CCN(c2cnc(N)c(-c3nnc(-c4ccc(CNC)cc4)o3)n2)CC1` [Compound I-322, 5-(4-Ethylpiperazin-1-yl)-3-[5-[4-(methylaminomethyl)phenyl]-1,3,4-oxadiazol-2-yl]pyrazin-2-amine] was 100 to 1000 nM.

As for `Nc1ncc(N2CCN(C(=O)N3CCOCC3)CC2)nc1C(=O)Nc1ccccn1` [Compound I-114, 3-amino-6-(4-(morpholine-4-carbonyl)piperazin-1-yl)-N-(pyridin-2-yl)pyrazine-2-carboxamide], the Ki lay in the range of 1000 to 10000 nM. Next, `Nc1ncc(N2CCN(C(=O)C3CCCC3)CC2)nc1C(=O)Nc1ccccn1` [Compound I-144, 3-amino-6-(4-(cyclopentanecarbonyl)piperazin-1-yl)-N-(pyridin-2-yl)pyrazine-2-carboxamide]: 100 to 1000 nM; `Nc1ncc(C2=CCN(c3nccs3)CC2)nc1-c1nc2ccccc2[nH]1` [Compound I-164, 3-(1H-benzo[d]imidazol-2-yl)-5-(1-(thiazol-2-yl)-1,2,3,6-tetrahydropyridin-4-yl)pyrazin-2-amine]: below 100 nM. Consider `CC(C)(C)C(=O)N1CC=C(c2cnc(N)c(-c3nc4ccccc4[nH]3)n2)CC1` [Compound I-214, 1-(4-(5-amino-6-(1H-benzo[d]imidazol-2-yl)pyrazin-2-yl)-5,6-dihydropyridin-1(2H)-yl)-2,2-dimethylpropan-1-one], for which the Ki lay within 100 to 1000 nM. Next, `CN(C)S(=O)(=O)N1CC=C(c2cnc(N)c(-c3nnc(-c4ccccc4)o3)n2)CC1` [Compound I-84, 4-(5-amino-6-(5-phenyl-1,3,4-oxadiazol-2-yl)pyrazin-2-yl)-N,N-dimethyl-5,6-dihydropyridine-1(2H)-sulfonamide]: below 100 nM. Next, `Cc1ccc2nc(-c3nc(N4CCOCC4)cnc3N)[nH]c2c1` [Compound I-3, 3-(6-methyl-1H-benzo[d]imidazol-2-yl)-5-morpholinopyrazin-2-amine]: 100 to 1000 nM; `Nc1ncc(C2=CCN(C(=O)OCc3ccccc3)CC2)nc1-c1nnc(-c2ccccc2)o1` [Compound I-257, benzyl 4-(5-amino-6-(5-phenyl-1,3,4-oxadiazol-2-yl)pyrazin-2-yl)-5,6-dihydropyridine-1(2H)-carboxylate]: 100 to 1000 nM; `NCCS(=O)(=O)N1CC=C(c2cnc(N)c(-c3nc4ccccc4[nH]3)n2)CC1` [Compound I-313, 5-(1-(2-Aminoethylsulfonyl)-1,2,3,6-tetrahydropyridin-4-yl)-3-(1H-benzo[d]imidazol-2-yl)pyrazin-2-amine]: 100 to 1000 nM.

With `Nc1ncc(C2=CCN(C(=O)C3CCOCC3)CC2)nc1-c1nc2ccccc2[nH]1` [Compound I-235, (4-(5-amino-6-(1H-benzo[d]imidazol-2-yl)pyrazin-2-yl)-5,6-dihydropyridin-1(2H)-yl)(tetrahydro-2H-pyran-4-yl)methanone], the Ki lay within 100 to 1000 nM. As to `CCS(=O)(=O)N1CCN(c2cnc(N)c(-c3nnc(-c4ccc(CNC)cc4)o3)n2)CC1(C)C` [Compound I-328, 5-(4-Ethylsulfonyl-3,3-dimethyl-piperazin-1-yl)-3-[5-[4-(methylaminomethyl)phenyl]-1,3,4-oxadiazol-2-yl]pyrazin-2-amine], the Ki was in the range of 100 to 1000 nM. Next, `Nc1ncc(C2=CCN(C(=O)C3CC3)CC2)nc1-c1nnc(-c2ccccc2)o1` [Compound I-285, [4-[5-amino-6-(5-phenyl-1,3,4-oxadiazol-2-yl)pyrazin-2-yl]-3,6-dihydro-2H-pyridin-1-yl]-cyclopropyl-methanone]: below 100 nM; `CCS(=O)(=O)N1CCN(c2cnc(N)c(C(=O)/C=C/c3ccccc3)n2)CC1` [Compound I-73, (E)-1-(3-amino-6-(4-(ethylsulfonyl)piperazin-1-yl)pyrazin-2-yl)-3-phenylprop-2-en-1-one]: 1000 to 10000 nM.

For `Nc1ncc(C2=CCN(S(=O)(=O)c3ccoc3)CC2)nc1-c1nnc(-c2ccccc2)o1` [Compound I-123, 5-(1-(furan-3-ylsulfonyl)-1,2,3,6-tetrahydropyridin-4-yl)-3-(5-phenyl-1,3,4-oxadiazol-2-yl)pyrazin-2-amine], the Ki is below 100 nM.

(Values after patent publication US8410112B2, “Compounds useful as inhibitors of ATR kinase” (Vertex Pharmaceuticals Incorporated, priority 2008, dated 2013).)
